Measured values as given in article PMC12615753, “Glutathione as a taste modulator: molecular mechanisms of interaction with umami and sweet taste receptors” (Food Chemistry: Molecular Sciences, 2025).
Entries after “also recorded” stand apart in the source; their conditions may differ.

Molecular target: T1, hTAS1R1 D192F/rTAS1R3 (UniProt Q7RTX1+Q923K1, D192F)
T1 construct: The cDNA coding region of rTAS1R3 was synthesized with optimized-codon usage for human expression; expressed in transfected cells; host or cells: HEK293T/17
T1 sequence (Q7RTX1 21-841 D192F): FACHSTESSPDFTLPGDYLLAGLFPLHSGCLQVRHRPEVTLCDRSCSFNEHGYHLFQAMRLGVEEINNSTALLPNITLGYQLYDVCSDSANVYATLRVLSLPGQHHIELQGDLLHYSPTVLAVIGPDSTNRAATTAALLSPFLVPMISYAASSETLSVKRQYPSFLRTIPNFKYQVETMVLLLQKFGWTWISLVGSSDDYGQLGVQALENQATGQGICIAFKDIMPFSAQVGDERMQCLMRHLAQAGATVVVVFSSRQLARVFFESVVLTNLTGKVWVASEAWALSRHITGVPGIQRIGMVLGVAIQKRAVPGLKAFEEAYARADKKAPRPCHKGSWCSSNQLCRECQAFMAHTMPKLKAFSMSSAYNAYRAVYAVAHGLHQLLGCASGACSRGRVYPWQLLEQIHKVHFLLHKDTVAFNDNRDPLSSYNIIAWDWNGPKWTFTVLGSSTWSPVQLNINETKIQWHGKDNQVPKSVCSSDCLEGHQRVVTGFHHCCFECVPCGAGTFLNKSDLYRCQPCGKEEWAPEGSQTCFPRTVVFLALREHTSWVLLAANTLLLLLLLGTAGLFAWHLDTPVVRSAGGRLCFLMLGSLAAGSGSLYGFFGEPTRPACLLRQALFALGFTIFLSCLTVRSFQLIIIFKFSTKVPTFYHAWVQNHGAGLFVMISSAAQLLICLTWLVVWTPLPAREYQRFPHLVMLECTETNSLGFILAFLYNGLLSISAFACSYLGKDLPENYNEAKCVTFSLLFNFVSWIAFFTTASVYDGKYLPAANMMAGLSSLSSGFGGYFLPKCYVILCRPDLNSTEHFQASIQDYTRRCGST
T1 sequence (Q923K1 21-858): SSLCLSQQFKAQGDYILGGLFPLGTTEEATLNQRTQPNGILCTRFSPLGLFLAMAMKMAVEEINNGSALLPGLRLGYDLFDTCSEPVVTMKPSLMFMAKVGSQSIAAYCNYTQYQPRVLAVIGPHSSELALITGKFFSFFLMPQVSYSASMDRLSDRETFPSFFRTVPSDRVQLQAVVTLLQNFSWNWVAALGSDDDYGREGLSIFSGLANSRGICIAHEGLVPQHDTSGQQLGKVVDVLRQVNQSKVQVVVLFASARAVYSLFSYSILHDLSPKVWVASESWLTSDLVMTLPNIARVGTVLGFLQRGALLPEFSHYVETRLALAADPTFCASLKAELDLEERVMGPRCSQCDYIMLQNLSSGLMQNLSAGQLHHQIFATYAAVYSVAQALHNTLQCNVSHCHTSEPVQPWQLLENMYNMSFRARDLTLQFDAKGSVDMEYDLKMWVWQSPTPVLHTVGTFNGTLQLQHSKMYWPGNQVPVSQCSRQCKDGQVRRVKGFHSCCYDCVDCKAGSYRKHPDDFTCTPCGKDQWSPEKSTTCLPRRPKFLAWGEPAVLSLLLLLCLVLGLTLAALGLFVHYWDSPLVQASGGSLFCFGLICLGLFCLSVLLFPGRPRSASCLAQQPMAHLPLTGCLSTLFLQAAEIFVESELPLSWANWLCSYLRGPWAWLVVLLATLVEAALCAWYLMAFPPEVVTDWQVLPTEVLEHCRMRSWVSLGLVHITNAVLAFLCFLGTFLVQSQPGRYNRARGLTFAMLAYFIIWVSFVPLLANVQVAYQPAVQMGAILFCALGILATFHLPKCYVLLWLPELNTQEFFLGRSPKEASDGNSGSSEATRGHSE
Assay: Calcium assay, hTAS1R1 mutant co-expressed with rTAS1R3
Type: cell-based, human, rat
Settings: for response to the agonist alone, vs WT: D192F
Source text: Chimeric Gα proteins, such as Gα16Gust44, Gα16Gi3 or Gα15i2, are widely used in the functional expression of TAS1R receptors ([Backes et al., 2015]; [Suess et al., 2015]; [Toda et al., 2021], [Toda et al., 2013], [Toda et al., 2018]; [Zhang et al., 2008]). Chimeric Gα15i2 (([Toda et al., 2013]), Supplementary data) was generated by replacing the last five residues of the C-terminal tail of rat Gα15i2 (EINLL) (UniProt number G3V6N8; https://www.uniprot.org/uniprot/) with the counterpart sequence from human GNAI2 (DCGLF) (UniProt number P04899-1) and cloning into the pcDNA3.1/Hygro vector (Invitrogen, Thermo Fisher Scientific, Illkirch, France) between the HindIII and NotI restriction sites, resulting in the plasmid pcDNA3.1-Gα15i2. Chimeric Gα16Gust44 construct have already been reported ([Raliou et al., 2011]). Briefly, Gα16Gust44 was generated by replacing the C-terminal of Gα16 with the C-terminal 44 residues of gustducin. As previously described, hTAS1R1 was amplified from human fungiform papillae cDNA and cloned and inserted into pcDNA3 (Invitrogen), generating pcDNA3-TAS1R1-WT (wild-type) ([Raliou et al., 2011]). […] The cDNA coding region of rTAS1R3 was synthesized with optimized-codon usage for human expression (Genewiz) and was cloned and inserted into the mammalian pcDNA4/myc-HisA (Invitrogen) expression vector between the EcoRI and NotI restriction sites, resulting in the plasmid pcDNA4-rTAS1R3. […] The sequence integrity of all the plasmid constructs was verified via automated DNA sequencing (Genewiz).
The hTAS1R1 mutants were co-expressed with the rTAS1R3 subunit in HEK293 cells. […] As a control, the functionality of the mutated receptors was checked after stimulation with S807 (Fig. S8), which interacts with TAS1R1-TMD ([Zhang et al., 2008]).

| SMILES | EC50 [mM] | response to the agonist alone, vs WT |
| --- | --- | --- |
| N[C@@H](CCC(=O)N[C@@H](CS)C(=O)NCC(=O)O)C(=O)O [GSH, γ-L-glutamyl-L-cysteinyl-glycine] | > 30 | fully abolished; also recorded: completely abolished |
| N[C@@H](CCC(=O)O)C(=O)O [L-Glu, L-glutamic acid, reference compound] |  | completely suppressed; also recorded: completely abolished |
| CCCC(CCC)NC(=O)c1ccc2c(c1)OCO2 [S807, N-(heptan-4-yl)benzo[d][1,3]dioxole-5-carboxamide, reference compound] |  | increased |
